Target: T1, dog PGP (Canis lupus familiaris, UniProt C0KKU9)
T1 construct: expressed in transfected cells; host or cells: LLC-PK1 cells (ATCC), electroporated with the p222CMV episomal vector and selected with hygromycin B
Assay: Polarization of vinblastine transport across dog PGP transfected LLC-PK1 cell monolayers in Transwells
Assay type: cell-based
Conditions: PGP transfected cells, compared with control cells; vinblastine (0.1 uM) transport in Transwells
Source text: Dog PGP cDNA (SEQ ID NO:1) is introduced into a clonal population of LLC-PK1 cells in a vector that confers resistance to hygromycin B. LLC-PK1 cells are obtained from the American Type Culture Collections and are propagated in Medium 199 supplemented to 7% with fetal bovine serum. LLC-PK1 cells are recloned prior to transfection in order to assure homogeneity of the cell population. Briefly, dog PGP cDNA is incorporated into the p222CMV vector. […] The PGP cDNA is under the control of the cytomegalovirus (CMV) immediate early promoter. The vector confers resistance to hygromycin B. Cells (in 0.4 mL) and DNA (10 to 20 μg) were transfected by electroporation using a BTX Electro cell manipulator model 600 using a 2 mm gap cell, 100V, 2500 μF capacitance and 72 ohm resistance. […] Expression of PGP is measured by the polarization of vinblastine (0.1 uM) transport in Transwells™.
LLC-PK1 cell based transport studies are conducted in 24 well Transwells™ (Corning Costar, Catalog number 3415). […] Transport is measured under sink conditions in both the apical to basolateral (A to B) and basolateral to apical (B to A) directions. […] Quantitation of the amount of compound transported is by liquid scintillation counting (vinblastine) or HPLC with UV or mass spectrometric detection.
Functional expression of dog PGP is measured by the polarization of transport of vinblastine.

T1 sequence (C0KKU9 1-1281): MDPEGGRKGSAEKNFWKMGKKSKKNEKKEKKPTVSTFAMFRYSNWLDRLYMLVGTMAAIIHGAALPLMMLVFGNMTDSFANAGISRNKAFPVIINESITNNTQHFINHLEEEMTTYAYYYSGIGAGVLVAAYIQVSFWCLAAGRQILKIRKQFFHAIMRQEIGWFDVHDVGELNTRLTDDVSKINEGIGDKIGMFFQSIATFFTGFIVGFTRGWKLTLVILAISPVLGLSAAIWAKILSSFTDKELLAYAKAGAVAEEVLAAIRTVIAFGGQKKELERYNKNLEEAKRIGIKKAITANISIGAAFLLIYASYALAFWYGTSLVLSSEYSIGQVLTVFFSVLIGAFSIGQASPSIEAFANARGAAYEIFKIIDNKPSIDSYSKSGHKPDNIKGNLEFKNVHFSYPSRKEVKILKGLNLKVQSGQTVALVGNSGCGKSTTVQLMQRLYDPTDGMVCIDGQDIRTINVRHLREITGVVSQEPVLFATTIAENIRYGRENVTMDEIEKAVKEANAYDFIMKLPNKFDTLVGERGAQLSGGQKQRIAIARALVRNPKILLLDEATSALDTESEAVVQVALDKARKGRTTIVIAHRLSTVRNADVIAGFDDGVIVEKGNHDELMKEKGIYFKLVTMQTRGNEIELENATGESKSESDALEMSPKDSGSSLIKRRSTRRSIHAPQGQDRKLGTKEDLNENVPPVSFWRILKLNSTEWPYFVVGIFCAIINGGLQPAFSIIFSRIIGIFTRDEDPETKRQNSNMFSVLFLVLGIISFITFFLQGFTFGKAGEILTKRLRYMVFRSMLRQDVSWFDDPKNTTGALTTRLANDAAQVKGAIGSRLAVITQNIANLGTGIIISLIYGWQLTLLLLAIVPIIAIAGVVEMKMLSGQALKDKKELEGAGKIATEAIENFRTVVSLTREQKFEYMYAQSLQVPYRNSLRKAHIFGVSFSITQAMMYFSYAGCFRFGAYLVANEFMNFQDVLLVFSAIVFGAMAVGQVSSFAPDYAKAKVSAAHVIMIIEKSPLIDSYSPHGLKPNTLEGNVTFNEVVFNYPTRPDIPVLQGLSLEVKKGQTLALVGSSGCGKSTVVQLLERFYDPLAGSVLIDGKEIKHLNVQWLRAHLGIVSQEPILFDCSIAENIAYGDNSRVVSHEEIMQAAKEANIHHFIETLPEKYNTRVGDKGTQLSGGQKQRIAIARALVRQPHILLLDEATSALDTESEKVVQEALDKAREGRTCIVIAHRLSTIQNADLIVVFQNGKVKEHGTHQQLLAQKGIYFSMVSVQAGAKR

With `CC[C@]1(O)C[C@@H]2CN(CCc3c([nH]c4ccccc34)[C@@](C(=O)OC)(c3cc4c(cc3OC)N(C)[C@H]3[C@@](O)(C(=O)OC)[C@H](OC(C)=O)[C@]5(CC)C=CCN6CC[C@]43[C@@H]65)C2)C1` [vinblastine] the “B to A/A to B ratio” value was “much higher ratio”.

Source: patent US6753177B1, “P-glycoproteins and uses thereof” (Becton Dickinson and Company, priority 1999, dated 2004)
